Laboratory results as given in patent US20130303575A1, “ADMINISTRATION OF AN INHIBITOR OF HDAC” (priority 2007, published 2013).
Entries after “also recorded” stand apart in the source; their conditions may differ. Like-named read-outs stand apart in the source and are kept apart here.

Tests used:
[1] = tested on: advanced acute leukemias; assay: Clinical outcome and biologic effects in adults with advanced acute leukemias (Example 3); format: in vivo, human
Procedure: To assess response to therapy, a BM aspiration was performed weekly for 4 weeks during the first cycle, at the end of each subsequent cycle, or at any time leukemia regrowth was suspected. Complete response (CR) required a normal BM aspirate with absence of identifiable leukemia, absolute neutrophils count (ANC) of 1×10^9/L or higher, platelet count of 100×10^9/L or higher, and absence of blasts in peripheral blood (PB). […] Progressive disease (PD) was defined as >50% increase in marrow or PB blasts from baseline or development of extramedullary leukemia.

[2] = Plasma pharmacokinetics of oral SNDX-275 in patients with advanced and refractory solid tumors or lymphoma (Example 2); format: in vivo; settings: human; for Cmax / AUC / Tmax / half-life: plasma, oral
Procedure: The initial dosing schedule was daily oral administration for 28 days and 14-day recovery period, constituting a 42-day cycle. […] Samples were immediately centrifuged at 3000 g for 10 minutes at 4° C. and then plasma was divided into two aliquots of at least 1 mL and frozen at −70° C. until the time of analysis. Plasma samples were assayed by a specific and sensitive high-performance liquid chromatographic assay with mass-spectrometric detection. […] The pharmacokinetic parameters of interest included peak plasma concentration (Cmax), time to peak concentration (Tmax), area under the plasma concentration versus time curve extrapolated to infinity (AUC), apparent oral clearance (CL/F), and the terminal half-life (T1/2, z). The peak plasma concentrations (Cmax) and the time to peak plasma concentrations (Tmax) were the observed values. The area under the plasma concentration versus time curve (AUC) was calculated using the linear trapezoidal method from time zero to the time of the final quantifiable concentration (AUCtf). The AUC was then extrapolated to infinity (AUCinf) by dividing the last measured concentration by the rate constant of the terminal phase (k), which was determined by linear-regression analysis of the final three or four time points of the ling-linear concentration time plot. […] Deviations of β from 1 correspond to deviations from ideal dose proportionality. […] All PK data are presented as mean±SD, except where otherwise indicated. […] One-way analysis of variance was performed to compare mean values using a two-sided Dunnett's test. Statistical calculations were performed using the Number Cruncher Statistical System 2001 series (J. L. Hintze, Kaysville, Utah). The cut-off for statistical significance was considered at P<0.05.

Compound: Nc1ccccc1NC(=O)c1ccc(CNC(=O)OCc2cccnc2)cc1 [SNDX-275, N-(2-aminophenyl) 4-[N-(pyrid-3-yl)methyloxycarbonylaminomethyl]benzamide]
- CR or PR by standard criteria ([1]; 34 patients evaluable for response): No patients achieved CR or PR
- patients with a 50% reduction in WBC counts ([1]; Fifteen patients): 38.5%
- Type of Response ([1]; patient 2, 4 mg/m^2 × 2/4 weeks, 4 cycles, bone marrow blast response): Bone marrow PR (>50% → 12% blasts, cycle 1)
- Type of Response ([1]; patient 2, 4 mg/m^2 × 2/4 weeks, 4 cycles, myeloid differentiation by ANC): Differentiation in myeloid lineage (ANC 504/μL →
- ANCmax ([1]; patient 2, 4 mg/m^2 × 2/4 weeks, cycle 1, from ANC 504/μL): ANCmax 1410/μL, cycle 1)
- Type of Response ([1]; patient 5, 4 mg/m^2 × 2/4 weeks (cycle 1), 6 mg/m^2 × 2/4 weeks (cycle 2 and 3), 3 cycles): Stable disease
- Type of Response ([1]; patient 11, 8 mg/m^2 × 2/4 weeks, 1 cycle): Decreased transfusion requirements
- Type of Response ([1]; patient 14, 8 mg/m^2 × 4/6 weeks, 1 cycle): Resolution of bone pain
- Type of Response ([1]; patient 15, 8 mg/m^2 × 4/6 weeks, 1.75 cycles, bone marrow blast response): Bone marrow PR (35% → 14% blasts, cycle 1)
- Type of Response ([1]; patient 15, 8 mg/m^2 × 4/6 weeks, 1.75 cycles, myeloid differentiation by ANC): Differentiation in myeloid lineage (ANC 288/μL →
- ANCmax ([1]; patient 15, 8 mg/m^2 × 4/6 weeks, cycle 1, from ANC 288/μL): 2052 µL⁻¹
- ANCmax ([1]; patient 15, 8 mg/m^2 × 4/6 weeks, cycle 2): 5546 µL⁻¹
- Type of Response ([1]; patient 18, 8 mg/m^2 × 4/6 weeks, 1.25 cycles): Differentiation in myeloid lineage (ANC 124/μL →
- ANCmax ([1]; patient 18, 8 mg/m^2 × 4/6 weeks, cycle 1, from ANC 124/μL): ANCmax 680/μL, cycle 1)
- Type of Response ([1]; patient 20, 8 mg/m^2 × 4/6 weeks, 1 cycle): Decreased transfusion requirements
- Type of Response ([1]; patient 24, 8 mg/m^2 × 4/6 weeks, 4.75 cycles, bone marrow blast response): Bone marrow PR (30% → 20% blasts, cycle 1)
- Type of Response ([1]; patient 24, 8 mg/m^2 × 4/6 weeks, 4.75 cycles, myeloid differentiation by ANC): Differentiation in myeloid lineage (ANC 520/μL →
- ANCmax ([1]; patient 24, 8 mg/m^2 × 4/6 weeks, cycle 1, from ANC 520/μL): 3637 µL⁻¹
- ANCmax ([1]; patient 24, 8 mg/m^2 × 4/6 weeks, cycle 3): 4456 µL⁻¹
- Type of Response ([1]; patient 27, 8 mg/m^2 × 4/6 weeks, 5 cycles): Stable disease; also recorded: Peripheral blood 21% → 0% blasts
- Type of Response ([1]; patient 33, 10 mg/m^2 × 4/6 weeks, 2 cycles): Resolution of extramedullary chloroma
- Type of Response ([1]; patient 34, 10 mg/m^2 × 4/6 weeks, 2 cycles, bone marrow blast response): Bone marrow CR (54% → 3% blasts, cycle 1)
- Type of Response ([1]; patient 34, 10 mg/m^2 × 4/6 weeks, 2 cycles, myeloid differentiation by ANC): Differentiation in myeloid lineage (ANC 103/μL →
- ANCmax ([1]; patient 34, 10 mg/m^2 × 4/6 weeks, cycle 1, from ANC 103/μL): 854 µL⁻¹
- ANCmax ([1]; patient 34, 10 mg/m^2 × 4/6 weeks, cycle 2): 2929 µL⁻¹
- median time to 50% reduction in WBC counts ([1]; range 3-28): 6 days
- interpatient variability in clearance, comparison for body-surface area correction ([2]; in vivo): 39.5%
- Cmax ([2]; 2 mg/m2, 2 mg/m^2, q14-day, first dose, fed, 3 patients): 1.72 ng/mL
- AUC ([2]; 2 mg/m2, 2 mg/m^2, q14-day, first dose, fed, 3 patients, read-out: AUC Mean): 196 ng·h/mL
- Tmax ([2]; 2 mg/m2, 2 mg/m^2, q14-day, first dose, fed, 3 patients, read-out: Tmax Median): 6 h
- half-life ([2]; 2 mg/m2, 2 mg/m^2, q14-day, first dose, fed, 3 patients, read-out: t1/2 Mean (converted)): 80.2 h
- Cmax ([2]; 4 mg/m2, 4 mg/m^2, q14-day, first dose, fed, 3 patients): 4.84 ng/mL
- AUC ([2]; 4 mg/m2, 4 mg/m^2, q14-day, first dose, fed, 3 patients, read-out: AUC Mean): 392 ng·h/mL
- Tmax ([2]; 4 mg/m2, 4 mg/m^2, q14-day, first dose, fed, 3 patients, read-out: Tmax Median): 6 h
- half-life ([2]; 4 mg/m2, 4 mg/m^2, q14-day, first dose, fed, 3 patients, read-out: t1/2 Mean (converted)): 50.5 h
- Cmax ([2]; 6 mg/m2, 6 mg/m^2, q14-day, first dose, fed, 6 patients): 9.59 ng/mL
- AUC ([2]; 6 mg/m2, 6 mg/m^2, q14-day, first dose, fed, 6 patients, read-out: AUC Mean): 493 ng·h/mL
- Tmax ([2]; 6 mg/m2, 6 mg/m^2, q14-day, first dose, fed, 6 patients, read-out: Tmax Median): 2 h
- half-life ([2]; 6 mg/m2, 6 mg/m^2, q14-day, first dose, fed, 6 patients, read-out: t1/2 Mean (converted)): 52.8 h
- Cmax ([2]; 8 mg/m2, 8 mg/m^2, q14-day, first dose, fed, 5 patients): 15.5 ng/mL
- AUC ([2]; 8 mg/m2, 8 mg/m^2, q14-day, first dose, fed, 5 patients, read-out: AUC Mean): 358 ng·h/mL
- Tmax ([2]; 8 mg/m2, 8 mg/m^2, q14-day, first dose, fed, 5 patients, read-out: Tmax Median): 2 h
- half-life ([2]; 8 mg/m2, 8 mg/m^2, q14-day, first dose, fed, 5 patients, read-out: t1/2 Mean (converted)): 39.7 h
- Cmax ([2]; 10 mg/m2, 10 mg/m^2, q14-day, first dose, fed, 6 patients): 45.1 ng/mL
- AUC ([2]; 10 mg/m2, 10 mg/m^2, q14-day, first dose, fed, 6 patients, read-out: AUC Mean): 529 ng·h/mL
- Tmax ([2]; 10 mg/m2, 10 mg/m^2, q14-day, first dose, fed, 6 patients, read-out: Tmax Median): 1.5 h
- half-life ([2]; 10 mg/m2, 10 mg/m^2, q14-day, first dose, fed, 6 patients, read-out: t1/2 Mean (converted)): 51.6 h
- Cmax ([2]; 12 mg/m2, 12 mg/m^2, q14-day, first dose, fed, 4 patients): 132 ng/mL
- AUC ([2]; 12 mg/m2, 12 mg/m^2, q14-day, first dose, fed, 4 patients, read-out: AUC Mean): 680 ng·h/mL
- Tmax ([2]; 12 mg/m2, 12 mg/m^2, q14-day, first dose, fed, 4 patients, read-out: Tmax Median): 0.5 h
- half-life ([2]; 12 mg/m2, 12 mg/m^2, q14-day, first dose, fed, 4 patients, read-out: t1/2 Mean (converted)): 45 h
- Tmax ([2]; all doses 2 to 12 mg/m^2, q14-day, read-out: Tmax Grand median): 1.75 h
- half-life ([2]; all doses 2 to 12 mg/m^2, q14-day, read-out: t1/2 Grand mean (apparent terminal half-life) (converted)): 51.7 ± 21.6 h
- half-life ([2]; bi-exponential decline, read-out: T1/2 in plasma (converted)): ~50 h
- half-life ([2]; half-life of SNDX-275 in humans, preliminary PK analysis): 39 to 80 h
- Tmax ([2]; in some patients, read-out: earliest Tmax observed (converted)): 0.5 h
- AUC ([2]; n=4, FIG. 6, read-out: mean AUC in patients experiencing DLTs): 517 ± 276 ng·h/mL
- AUC ([2]; n=23, FIG. 6, read-out: mean AUC in patients without DLT): 280 ± 121 ng·h/mL
- Tmax ([2]; q14-day schedule, read-out: median Tmax): ~2 h
